Reference: US5962291A, “Metal dependent catalytic antibodies and method for producing the same” (The Regents of the University of Colorado, priority 1997, dated 1999)
Blank lines part the entries; values can stand above or below the molecule they belong to.

What was measured:
Format in all cases: biochemical, mice
[1] = tested on: monoclonal antibody 6A1A6 (metal dependent catalytic antibody, IgG); assay: Hydrolysis of 14C-labeled ATP, ADP and AMP by antibody 6A1A6, silica TLC analysis; details: for Km / Vmax: 37° C., 0.5 mM EDTA, 1 mM MgCl2, 40 mM CHES, pH 9.0, 1.9 μM antibody
Protocol: (§1) General. […] EDTA was added to reactions to a concentration that removed the catalytic activity. MgCl2 or other metal salts were then added back to the reactions at the optimum level. Antibody concentration was adjusted for each system to obtain useable data in a reasonable reaction time and varied from 0.5-4 μM.
(§2) Kinetic analyses were done by standard methods as described. Rates were defined as initial velocities and reported in min^-1 or sec^-1. Each assay was done in duplicate or triplicate to allow for error analysis. Background rates were measured using an identical reaction mixture without antibody present. Michales-Menten parameters kcat and Km were derived from Eadie-Hofstee or weighted Lineweaver-Burk plots (using the computer program Enzyme Kinetics 1.0, Macintosh, Trinity Software). Inhibitory constants, Ki, were derived from Dixon or Lineweaver-Burk plots.
Thin Layer Chromatography. Reactions were quenched and analyzed by spotting on a TLC plate. Two systems were used. PEI-cellulose coated plates were run in 1.5 M formic acid/0.5 M LiCl (Rf values: […], 0.3; Pi, 0.8). (In some cases it was useful to pre-run the TLC plate in H2 O to reduce smearing). Silica coated plates were run in isopropanol:NH4OH:H2 O, (50:25:25) (Rf values: ATP, 0.36; ADP, 0.55; AMP, 0.7; and Adenosine, 0.95). Assays involving the visualization of pyrophosphate used two TLC systems simultaneously: the silica system described (Rf values: PPi,O; Pi, 0.3), and a PEI-cellulose system run in 0.3 M sodium phosphate, pH=7.0 (Rf values: ATP, 0.2; ADP, 0.4; AMP, 0.6; PPi, 0.15; and Pi, 0.65). Radioactivity was quantitated using a Molecular Dynamics Phosphorlmager.
Kinetic Assays Using ^14 C-Labeled Compounds. Assays were performed with [8-^14 C]ATP, [8-^14 C]ADP, and [^14 C(U)]AMP. […] Immediately before each reaction, the solution was evaporated to dryness in vacuo and the compound resuspended in an equal volume of water. […] Reactions were quenched and analyzed by the silica TLC system.

[2] = target: monoclonal antibody 6A1A6 (metal dependent catalytic antibody, IgG); assay: Spectrophotometric (405 nm) hydrolysis of p-nitrophenyl ester substrates by antibody 6A1A6; details: for Ki: pH 9.0, 10 mM MgCl2
Protocol: as §1, with “General. Because antibody 6A1A6, see Table 2, was metal dependent, a few precautions were taken to insure consistent results for all assays.” for “General.”
as §2
p-Nitrophenyl Esters as Substrates. A useful system to assess cleavage utilized substrates containing esters with p-nitrophenol leaving groups. This assay was fast, reproducible and much more trouble free than the fluorescence assays. It relied on the fact that the anion cleavage product, p-nitrophenolate, is yellow at basic pH and its appearance can be followed spectrophotometrically at 405 nm.
Antibody 6A1A6 was assayed spectrophotometrically for its ability to cleave the above mentioned substrates containing the p-nitrophenyl leaving group at 405 nm using a Molecular Devices Vmax® kinetic microplate reader. Kinetic assays were performed in triplicate at 25° C. in 40 mM TAPS, 150 mM NaCl, 10 mM MgCl2, 0.5-0.6 μM antibody, pH=9.0.
Phosphodiester Substrate. […] This represents the first report of a catalytic antibody capable of hydrolyzing a phosphodiester bond. pNPPT is normally used as a substrate for snake venom phosphodiesterase. […] The uncatalyzed rate under these conditions was 1.35×10^-6 min^-1. […] The Ki is defined as the negative x-coordinate of the intersection point of the lines in a Dixon plot.
Phosphomonoester Substrate. Under reaction condition identical to those used for pNPPT, the antibody also catalyzes the hydrolysis of p-nitrophenyl phosphate (pNPP). […] The uncatalyzed rate was 3.4×10^-6 min^-1.

[3] = target: monoclonal antibody 6A1A6 (metal dependent catalytic antibody, IgG); assay: Hydrolysis of oligomer T15 (DNase activity) by antibody 6A1A6, inhibition by hapten; details: substrate oligomer T15; pH 9, 1 mM Mg2+; read-out: Ki (competitive inhibition of DNase activity)
Protocol: as §2
It was unknown what type of specificity antibody 6A1A6 would have for a DNA polymer. Several possible activities were monitored under conditions of pH 9 and 1 mM Mg^2+ that were optimal for ATP hydrolysis.
Kinetic Parameters. Kinetic experiments were performed with T15 as a substrate. Due to the very slow rate of hydrolysis, experiments were done under single turnover conditions with enzyme excess.
Control Experiments. Standard controls were performed using oligomer T15 as a substrate. Immunoprecipitation reduced activity by 93%. The remaining activity could be due to incomplete immunoprecipitation, but could also be due to a contaminating nuclease. […] Fab fragments retained 46±17% of the original activity.

[4] = substrate pNPP, read-out: Ki (competitive inhibition of pNPP hydrolysis)

Km [1]: 70 ± 8 µM
Molecule: Nc1ncnc2c1ncn2[C@@H]1O[C@H](COP(=O)(O)OP(=O)(O)O)[C@@H](O)[C@H]1O [ADP, adenosine diphosphate]
Vmax [1]: 120 ± 20 s⁻¹

Km [1]: 161 ± 21 µM
Molecule: Nc1ncnc2c1ncn2[C@@H]1O[C@H](COP(=O)(O)O)[C@@H](O)[C@H]1O [AMP]
Vmax [1]: 102 ± 3 s⁻¹

Molecule: Nc1ncnc2c1ncn2[C@@H]1O[C@H](COP(=O)(O)OP(=O)(O)OP(=O)(O)O)[C@@H](O)[C@H]1O [ATP, Adenosine triphosphate]
Km [1]: 1400 ± 123 µM

Molecule: O=[N+]([O-])c1ccc(O)cc1 [p-nitrophenol]
Ki [2, 4]: 9.31 ± 1.94 µM | Ki ([2]; substrate pNPPT, product inhibition, read-out: Ki for p-nitrophenol (Dixon plot)): 10.1 ± 2.1 µM

Molecule: Cc1cn([C@H]2C[C@H](O)[C@@H](COP(=O)(O)Oc3ccc([N+](=O)[O-])cc3)O2)c(=O)[nH]c1=O [pNPPT, thymidine-5'-monophosphate-p-nitrophenyl ester]
kcat (apparent), pNPPT as substrate ([2]; 10 mM MgCl2, 40 mM TAPS, 150 mM NaCl, pH 9.0, 25° C.): 0.031±0.05 min^-1 | Km ([2]; 10 mM MgCl2, 40 mM TAPS, 150 mM NaCl, pH 9.0, 25° C., read-out: Km (apparent), pNPPT as substrate): 290 ± 80 µM

Molecule: thymidine 3'-O-(7-hydroxy-4-methyl coumarin) phosphorodithioate [hapten]
Ki [3]: 758 ± 57 µM | Ki ([1]; substrate ATP, read-out: Ki (competitive inhibitor of ATP hydrolysis)): 559 µM | Ki [2, 4]: 199 ± 54 µM
